Test results taken from patent publication US20150343016A1, “CHEMICAL ENTITIES AND THERAPEUTIC USES THEREOF” (The Regents of the University of Colorado, a body corporate, priority 2010, published 2015).
Entries after “also recorded” stand apart in the source; their conditions may differ.

Experiments:
Type in all cases: cell-based, human
H157 cells = assay: MTT assay, Bouvardin with ionizing radiation, H157
Procedure: “Combination Index” computation. Combination Indices were calculated using CalcuSyn software (Biosoft), which uses the method of Chou and Talalay. This method first computes drug-induced effect using the Hill Equation: where E is the measured effect; C is the drug concentration; Emax is the full range of drug effect, usually at or near 100%; IC50 is the drug concentration producing the median effect of 50%; and n is the curve shape parameter describing the steepness of the concentration-effect relationship. The Chou and Talalay method then linearizes the Hill Equation by logarithmic transformation as: where fu is the fraction of cells left unaffected after drug exposure, fa is the fraction of cells affected by the exposure, C is the drug concentration used, Cm is the concentration to achieve the median effect, and n is the curve shape parameter. Cm and n are equivalent to IC50 and n, respectively, in the Hill Equation. The values of n (obtained from the slope), nlog(Cm) (obtained from the absolute value of the intercept), and, therefore, Cm are obtained by plotting log(fu−1−1) versus log(C). These numbers are then used to compute the Combination Index (CI) according to the formula: CI=(D)1/(Dx)1+(D)2/(Dx)2 (26). (Dx)1 and (Dx)2 are the doses required to achieve a given effect level for each treatment, i.e. a specified value of Fraction Affected or Fa. (D)1 and (D)2 are the doses of each treatment in a given combination which gives the same Fa.
In FIG. 16 MTT assays were used to determine the effect of Bouvardin in combination with IR. Cells were either treated with drug for 24 hr prior to irradiation (A and C, ‘pre-treatment’) or drug and radiation were applied on the same day (B and D, ‘same day treatment’). (A & B) Fraction of cells killed or otherwise eliminated (Fraction Affected) at different doses of Bouvardin and 0 or 2 Gy of IR. (C & D) Combination Index (CI) data from two experiments with pre-treatment protocol, to illustrate reproducibility. CIs below 1 indicate synergy.
In the absence of radiation, the drug has an IC50 (Fraction Affected, Fa=0.5) in the nM range ([…], ‘0 Gy’). Fraction Affected is determined by the formula, 1−(x/y), where x is the MTT signal for the experimental sample and y is the MTT signal for the un-treated control. For example, if the MTT signal in the experimental is 30% of the MTT signal in the control, fraction affected is 0.7. Radiation increased the Fa in a dose-dependent manner in the absence of drug. The addition of the drug further increased the Fa for each dose of radiation. This happened whether the drug was added 24 hr before irradiation (pre-treatment, FIGS. 16A,C) or concurrently (same day treatment, FIGS. 16B,D).
The efficiency of Bouvardin in increasing the effect of radiation on cancer cells is measured in terms of Combination Index (CI) as determined by CalcuSyn software according to the method of Chou and Talalay. This method is widely used in biomedical literature and it has been applied to combinations of antitumor drugs. CI values are calculated from Fa values for multiple drug and radiation doses such as those shown in FIGS. 16 A and B. CI computation takes into account the shape of the dose-response curve, the maximal effect, the intercept, and the IC50 values for drug at each dose of radiation and IC50 for radiation at each dose of drug. […]
The growth inhibitory effects of Bouvardin with ionizing radiation (IR) were evaluated using a modified tetrazolium salt (MTT) assay. […]

FaDu cells = assay: CellTiter-Glo Luminescent Cell Viability Assay, Bouvardin with Taxol, FaDu
Procedure: “Combination Index” computation. Combination Indices were calculated using CalcuSyn software (Biosoft), which uses the method of Chou and Talalay. This method first computes drug-induced effect using the Hill Equation: where E is the measured effect; C is the drug concentration; Emax is the full range of drug effect, usually at or near 100%; IC50 is the drug concentration producing the median effect of 50%; and n is the curve shape parameter describing the steepness of the concentration-effect relationship. The Chou and Talalay method then linearizes the Hill Equation by logarithmic transformation as: where fu is the fraction of cells left unaffected after drug exposure, fa is the fraction of cells affected by the exposure, C is the drug concentration used, Cm is the concentration to achieve the median effect, and n is the curve shape parameter. Cm and n are equivalent to IC50 and n, respectively, in the Hill Equation. The values of n (obtained from the slope), nlog(Cm) (obtained from the absolute value of the intercept), and, therefore, Cm are obtained by plotting log(fu−1−1) versus log(C). […]
The growth inhibitory effects of Bouvardin with Taxol were evaluated using CellTiter-Glo® Luminescent Cell Viability Assay (Promega G7570). […] Luminescence of each well was measured using an automated plate reader.

Det562 cells = assay: CellTiter-Glo Luminescent Cell Viability Assay, Bouvardin with Taxol, Det562; details: Det562

COc1ccc(C[C@H]2C(=O)N[C@H](C)C(=O)N(C)[C@@H]3C(=O)N(C)[C@@H](Cc4ccc(O)c(c4)Oc4ccc(cc4)[C@H]3O)C(=O)N[C@@H](C)C(=O)N[C@H](C)C(=O)N2C)cc1 (stereo in doubt) [Bouvardin, bouvardin]
interaction with radiation in cell-based assays (H157 cells; 0.3 μM of drug): synergistically | interaction with radiation in cell-based assays (H157 cells; 0.6 μM of drug): additively/antagonistically | interaction of Bouvardin with radiation (H157 cells; H157): synergy over a wide range of doses; also recorded: synergize | IC50 (Fraction Affected, Fa=0.5) (H157 cells; H157, in the absence of radiation (0 Gy)): nM range | interaction of Bouvardin with radiation (H157 cells; H157, listed as bouvardin): synergizes with ionizing radiation | Bouvardin concentration up to which synergy was seen when combined with taxol (FaDu cells; Det562 and FaDu (FIG. 18)): up to 0.3 μM | interaction of Bouvardin with Taxol (FaDu cells; FaDu): synergy with Taxol over a wide range of concentrations | interaction of Bouvardin with Taxol (Det562 cells): synergy with Taxol over a wide range of concentrations
